Source: patent publication US20020052295A1, “Diacyl derivatives of propylene diamine having herbicidal activity” (priority 1999, published 2002)

How the values were obtained:
CIRAR = test: Pre-emergence herbicidal activity on CIRAR (canada thistle, seedling); type: in vivo, Cirsium arvense
In short: (§1)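 Seeds sown on sterilized fertilized topsoil in pots, covered to level, then compound in 50:50 acetone/water sprayed on soil surface. Greenhouse 30/21 °C day/night, 0.64 cm overhead irrigation, then mist/subirrigation. Percent inhibition vs untreated plants scored ~14 days after treatment; GR80 derived, highest rate typically 1000 g/ha.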

soybeans = test: Field trials, crop selectivity in soybeans; type: in vivo; settings: pre-emergence rates giving acceptable weed control
PANDI = test: Pre-emergence herbicidal activity on PANDI (fall panicum); type: in vivo, Panicum dichotomiflorum
In short: as §1

monocotyledonous species = test: Pre-emergence test (later test), GR80 on monocotyledonous species; type: in vivo; settings: average over monocotyledonous species
Description: (§2) All such uses, and the biological activity enabling such uses, are embraced by the term “herbicidal” herein. Tables 15 and 16 summarize results of tests conducted as described below to determine the pre-emergence herbicidal activity, in the form of a GR80 value, of illustrative compounds of this invention. […] Where herbicidal activity was evident but 80% inhibition was not achieved at the highest rate tested (typically 1000 g/ha), an asterisk (*) is shown in the following tables. Herbicidal activity evident in the form of symptoms of phytotoxicity, in the absence of at least 80% inhibition at any rate, is indicated in the tables by “phyto”. A blank cell in the following tables indicates no herbicidal or phytotoxic response at any rate tested.
(§3) The pre-emergence tests were conducted by the following procedure. Topsoil was sieved to pass through a 1.27 cm screen. Fertilizer was added to the topsoil and the mixture was then sterilized by heating. The topsoil mixture was placed in a pot and compacted to a depth of 1.0 to 1.25 cm from the top of the pot. Seeds of each of several monocotyledonous and dicotyledonous annual plant species were placed on top of the soil. […]
(§4) Approximately 14 days after planting and treating, the plants were observed and herbicidal efficacy recorded as percent inhibition by comparison with untreated plants. […]

SETFA = test: Pre-emergence herbicidal activity on SETFA (giant foxtail); type: in vivo, Setaria faberi
In short: as §1

CONAR = test: Pre-emergence herbicidal activity on CONAR (field bindweed); type: in vivo, Convolvulus arvensis
In short: as §1

ECHCG = test: Pre-emergence herbicidal activity on ECHCG (barnyardgrass); type: in vivo, Echinochloa crus-galli; settings: racemic mixture vs enantiomers test; rates tested 1000, 650, 300, 200, 100, 65, 30 and 10 g/ha; lowest rate with 80% or greater inhibition
In short: as §1

corn (maize) = test: Field trials, crop selectivity in corn; type: in vivo; settings: pre-emergence rates giving acceptable weed control
AMARE = test: Pre-emergence herbicidal activity on AMARE (redroot pigweed); type: in vivo, Amaranthus retroflexus
In short: as §1

SORVU = test: Pre-emergence herbicidal activity on SORVU (shattercane); type: in vivo, Sorghum vulgare; settings: racemic mixture vs enantiomers test; rates tested 1000, 650, 300, 200, 100, 65, 30 and 10 g/ha; lowest rate with 80% or greater inhibition
In short: as §1

cotton = settings: field trials; pre-emergence
PANMI = test: Pre-emergence herbicidal activity on PANMI (wild proso millet); type: in vivo, Panicum miliaceum
In short: as §1

BRAPP = test: Pre-emergence herbicidal activity on BRAPP (broadleaf signalgrass); type: in vivo, Brachiaria platyphylla
In short: as §1

[1] = tested on: monocotyledonous and dicotyledonous annual plant species; test: Greenhouse pre-emergence test, all species of the test taken together; type: in vivo
Description: All such uses, and the biological activity enabling such uses, are embraced by the term “herbicidal” herein. […] Where herbicidal activity was evident but 80% inhibition was not achieved at the highest rate tested (typically 1000 g/ha), an asterisk (*) is shown in the following tables. Herbicidal activity evident in the form of symptoms of phytotoxicity, in the absence of at least 80% inhibition at any rate, is indicated in the tables by “phyto”. A blank cell in the following tables indicates no herbicidal or phytotoxic response at any rate tested.
The pre-emergence tests were conducted by the following procedure. Topsoil was sieved to pass through a 1.27 cm screen. Fertilizer was added to the topsoil and the mixture was then sterilized by heating. The topsoil mixture was placed in a pot and compacted to a depth of 1.0 to 1.25 cm from the top of the pot. Seeds of each of several monocotyledonous and dicotyledonous annual plant species were placed on top of the soil. Additional soil was subsequently placed over the seeds to level-fill the pot. A known amount of each test compound dissolved or suspended in an appropriate organic solvent was diluted with a 50:50 mix of acetone and water and applied to the surface of the soil. After treatment the plants were placed in a greenhouse with a 30/21° C. day/night temperature regime where they received 0.64 cm of overhead irrigation. All subsequent watering consisted of a light overhead mist and/or subirrigation as needed for germination and growth.
Pre-emergence herbicidal activity of the compound of Example 5, a racemic mixture of R- and S-enantiomers of N,N′-(1,2-propanediylbis)-3-(trifluoromethyl) benzamide, was compared with that of the individual R- and S-enantiomers, the compounds of Examples 5a and 5b respectively. The procedure was exactly as described above. Rates tested were 1000, 650, 300, 200, 100, 65, 30 and 10 g/ha.
In a greenhouse pre-emergence test conducted according to the procedure described hereinabove, R—N,N′-(1,2-propanediylbis)-3-(trifluoromethyl)benzamide (the compound of Example 5a) was applied at 200 g/ha and acetochlor was applied at 100 g/ha, both individually and in combination.
In the same greenhouse pre-emergence test, R-2-fluoro-3-trifluoromethyl-N-[1-methyl-2-(3-trifluoromethyl)phenylcarbonylamino]ethylbenzamide (the compound of Example 13) was applied at 100 g/ha and acetochlor was applied at 100 g/ha, both individually and in combination.

DATST = test: Pre-emergence herbicidal activity on DATST (jimsonweed); type: in vivo, Datura stramonium
In short: as §1

SOLNI = test: Pre-emergence herbicidal activity on SOLNI (black nightshade); type: in vivo, Solanum nigrum
In short: as §1

rice = settings: field trials; pre-emergence
ABUTH = test: Pre-emergence herbicidal activity on ABUTH (velvetleaf); type: in vivo, Abutilon theophrasti
In short: as §1

DIGSA = test: Pre-emergence herbicidal activity on DIGSA (large crabgrass); type: in vivo, Digitaria sanguinalis
In short: as §1

POROL = test: Pre-emergence herbicidal activity on POROL (common purslane); type: in vivo, Portulaca oleracea
In short: as §1

sorghum = test: Field trials, crop selectivity in sorghum; type: in vivo; settings: pre-emergence rates giving acceptable weed control
[2] = tested on: several weed species, predominantly dicotyledonous species; test: Field trials, pre-emergence weed control; type: in vivo; settings: pre-emergence application
CHEAL = test: Pre-emergence herbicidal activity on CHEAL (common lambsquarters); type: in vivo, Chenopodium album
In short: as §1

SORHA = test: Pre-emergence herbicidal activity on SORHA (johnsongrass, seedling); type: in vivo, Sorghum halepense
In short: as §1

dicotyledonous species = test: Pre-emergence test (later test), average GR80 on dicotyledonous species; type: in vivo; settings: average over dicotyledonous species
Description: as §2, §3, §4

[3] = pre-emergence application, Example 5a 200 g/ha alone
[4] = racemic mixture vs enantiomers test, rates tested 1000, 650, 300, 200, 100, 65, 30 and 10 g/ha, lowest rate with 80% or greater inhibition

`C[C@H](CNC(=O)c1cccc(C(F)(F)F)c1)NC(=O)c1cccc(C(F)(F)F)c1` [Example 5a, R—N,N′-(1,2-propanediylbis)-3-(trifluoromethyl)benzamide] was tested, and the “Percent control CIRAR” value (CIRAR; [3]) was 35%, the “Pre-emergence activity (GR80) CIRAR” value (CIRAR; [4]) was 1000 g/ha and the “crop injury, soybeans” value (soybeans) was “not injurious”. For the same compound, the “Percent control PANDI” value (PANDI; [3]) was 55%, the “Pre-emergence activity (GR80) PANDI” value (PANDI; [4]) was 200 g/ha and the “pre-emergence GR80 on monocotyledonous species” value (monocotyledonous species) was 711 g/ha. For the same compound, the “Percent control SETFA” value (SETFA; [3]) was 40%, the “Pre-emergence activity (GR80) SETFA” value (SETFA; [4]) was “phyto” and the “Percent control CONAR” value (CONAR; [3]) was 22%. The “Pre-emergence activity (GR80) CONAR” value (CONAR; [4]) was “phyto”, the “Pre-emergence activity (GR80) ECHCG” value (ECHCG) was “phyto” and the “crop injury, corn (maize)” value (corn (maize)) was “not injurious”. For the same compound, the “Percent control AMARE” value (AMARE; [3]) was 100%, the “Pre-emergence activity (GR80) AMARE” value (AMARE; [4]) was 30 g/ha and the “Pre-emergence activity (GR80) SORVU” value (SORVU) was “[empty]”. The “crop selectivity, cotton” value (cotton) was “not to be adequately selective”, the “Percent control PANMI” value (PANMI; [3]) was 20% and the “Pre-emergence activity (GR80) PANMI” value (PANMI; [4]) was 300 g/ha. The “Percent control BRAPP” value (BRAPP; [3]) was 15%, the “Pre-emergence activity (GR80) BRAPP” value (BRAPP; [4]) was “phyto” and the “herbicidal activity of the combination compared with expectation” value ([1]; Example 5a 200 g/ha + acetochlor 100 g/ha, at least on ABUTH, DATST, SORHA and PANMI) was “greater than expected herbicidal activity”. The “number of the 14 species showing >85% control” value ([1]; Example 5a 200 g/ha in combination with acetochlor 100 g/ha) was 11, the “number of the 14 species showing >85% control” value ([1]; Example 5a alone at 200 g/ha) was 4 and the “GR80 values relative to those of the racemic mixture” value ([1]; typical over species of Tables 19 and 20) was “about one-half”. The “Percent control DATST” value (DATST; [3]) was 41%, the “Pre-emergence activity (GR80) DATST” value (DATST; [4]) was 650 g/ha and the “Percent control SOLNI” value (SOLNI; [3]) was 100%. For the same compound, the “Pre-emergence activity (GR80) SOLNI” value (SOLNI; [4]) was 200 g/ha, the “crop selectivity, rice” value (rice) was “not to be adequately selective” and the “Percent control ABUTH” value (ABUTH; [3]) was 8%. The “Pre-emergence activity (GR80) ABUTH” value (ABUTH; [4]) was 650 g/ha, the “Percent control DIGSA” value (DIGSA; [3]) was 82% and the “Pre-emergence activity (GR80) DIGSA” value (DIGSA; [4]) was 65 g/ha. For the same compound, the “Percent control POROL” value (POROL; [3]) was 100%, the “Pre-emergence activity (GR80) PORAL” value (POROL; [4]) was 30 g/ha and the “crop injury, sorghum” value (sorghum) was “not injurious”. For the same compound, the “weed control in field trials” value [2] was “acceptable control”, the “Percent control CHEAL” value (CHEAL; [3]) was 100% and the “Pre-emergence activity (GR80) CHEAL” value (CHEAL; [4]) was 65 g/ha. The “Percent control SORHA” value (SORHA; [3]) was 30%, the “Pre-emergence activity (GR80) SORHA” value (SORHA; [4]) was “phyto” and the “average pre-emergence GR80 on dicotyledonous species” value (dicotyledonous species) was 235 g/ha.
